Data from patent US9789096B2, “Methods and compositions for selective and targeted cancer therapy” (Board of Regents of the University of Texas System, priority 2013, dated 2017).
Like-named read-outs stand apart in the source and are kept apart here.

Assays:
Assay type in all cases: cell-based, human
H2122 = test: Cell viability dose-response, H2122; details: Homo sapiens; for AC50: NCI-H2122, Table 8, 12-point dose-response starting at 50 micromolar
In short: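 Cells plated at 15% confluence in RPMI-1640 with 5% FBS and 2 mM L-glutamine, treated with compound in a 12-point, 3-fold dilution series from 50 micromolar, in duplicate. ATP measured by Cell Titer Glo after 4 days; IC50 taken from the dose-response curve.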

H2009 = test: Cell viability dose-response, H2009; details: Homo sapiens; for AC50: NCI-H2009, Table 8; for IC50: NCI-H2009
Method: (§1) FIG. 6A. […] Cell viability is plotted vs. compound concentration. Compound was added to cells plated at 15% confluence in 96-well plates in RPMI-1640 media supplemented with 5% Fetal Bovine Serum and 2 mM L-Glutamine. After 4 days of incubation, ATP levels were measured using Cell Titer Glo (Promega). Data are presented as the average of 2 replicates ±SEM.
(§2) Selectivity may be measured by the half maximal inhibitory concentration (IC50), which, as used herein, is a measure of the effectiveness of a compound in killing cells. This quantitative measure indicates how much of a particular compound is needed to kill a particular cell population by half (e.g., as indicated by the amount of ATP). […] The IC50 can be determined by constructing a dose-response curve. The lower the IC50, the higher the potency, and the greater the difference between IC50 values for different cell lines (e.g., sensitive lines vs. insensitive lines, and sensitive lines vs. normal lines) the greater the selectivity. […]
(§3) With this information, we synthesized and tested a series of small molecules derived in conception from the oxalamide and chromone scaffold including N-acyl ureas, as shown in Tables 6-8. Each compound was tested in a 12-point dose-response study starting at 50 micromolar and decreasing in 3-fold increments to sub-nanomolar concentrations, in duplicate. Additionally, one or more additional cell line was tested in the same way.

HCC44 = test: Cell viability dose-response, HCC44; details: Homo sapiens; for AC50: HCC44, Table 8, 12-point dose-response starting at 50 micromolar
Method: as §1, §2, §3

[1] = 12-point dose-response starting at 50 micromolar
[2] = NCI-H2122, 12-point dose-response starting at 50 micromolar, 3-fold increments, in duplicate, read-out: toxicity data, H2122
[3] = 12-point dose-response starting at 50 micromolar, 3-fold increments, in duplicate, read-out: toxicity data, H2009
[4] = HCC44, 12-point dose-response starting at 50 micromolar, 3-fold increments, in duplicate, read-out: toxicity data, HCC44
[5] = NCI-H2122, Table 9, competitor, read-out: IC50 to H2122 cells

Compound | AC50 (H2122) | AC50 (H2009; [1]) | AC50 (HCC44) | IC50 (H2122; [2]) | IC50 (H2009; [3]) | IC50 (HCC44; [4]) | also measured
O=c1c(Oc2ccccc2F)coc2cc(OCc3cnn(-c4cccc(F)c4)c3)ccc12 [SW208467] | ≥ 49500 nM | 12.6 µM | 49.5 µM |  |  |  | 
O=C(NCCc1ccc(O)cc1)NC(=O)c1ccc(Oc2ccccc2)cc1 [SW208523-1-A] |  |  |  | 0.02 µM | 0.02 µM | 0.02 µM | 
O=c1c(Oc2ccc(F)cc2)coc2cc(OCc3cnn(-c4ccccc4)c3)ccc12 [SW 208591-1] | 150 nM | 16 µM | 0.07 µM |  |  |  | 
COc1ccc(CCNC(=O)NC(=O)c2ccc(C(=O)c3ccccc3)cc2)cc1 [SW208222-1-A] |  |  |  | 0.105 µM | 48 µM | 0.241 µM | IC50 (H2122; [5]): 0.142 µM
COc1ccc(CCNC(=O)NC(=O)c2ccc(Cl)cc2)cc1 [SW208401-1-A] |  |  |  | 0.15 µM | ≥ 49.5 µM | 0.54 µM | IC50 (H2122; [5]): 0.09 µM
Cc1ccc(/C=C/c2coc3cc(OCc4cnn(-c5ccccc5)c4)ccc3c2=O)cc1 [SW208758-1] | ≥ 49500 nM | 16.5 µM | 49.5 µM |  |  |  | 
O=c1c(Oc2ccccc2F)coc2cc(OCc3cnn(-c4ccc(F)cc4)c3)ccc12 [SW208468] | ≥ 49500 nM | 22.3 µM | 49.5 µM |  |  |  | 
O=C(NCCc1ccc(O)cc1)NC(=O)c1ccc(COc2ccccc2)cc1 [SW208522-1-A] |  |  |  | 0.01 µM | 0.01 µM | 0.01 µM | IC50 (H2122; [5]): 0.0477 µM
COc1ccc(CCNC(=O)NC(=O)c2ccc(C(=O)Nc3ccc(OC)cc3)cc2)cc1 [SW208411-1-A] |  |  |  | ≥ 49.5 µM | ≥ 49.5 µM | ≥ 49.5 µM | 
COc1ccc(CCC(=O)Nc2ccc(C(=O)c3ccccc3)cc2)cc1 [SW208466-1-A] |  |  |  | ≥ 49.5 µM | ≥ 49.5 µM | ≥ 49.5 µM | 
COC(=O)c1ccc(C(=O)NC(=O)NCCc2ccc(OC)cc2)cc1 [SW208390-1-A] |  |  |  | ≥ 49.5 µM | ≥ 49.5 µM | ≥ 49.5 µM | 
O=C(c1ccccc1)c1coc2cc(OCc3cnn(-c4ccccc4)c3)ccc2c1=O [SW208844-1] | 864 nM | 30 µM | 23.7 µM |  |  |  | 
COc1ccc(CCNC(=O)N(C)C(=O)c2ccc(C(=O)c3ccccc3)cc2)cc1 [SW208566-1-A] |  |  |  | 6.15 µM | 10.3 µM | 7.76 µM | 
O=c1ccoc2cc(OCc3cnn(-c4ccccc4)c3)ccc12 [SW 208629-1] | ≥ 49500 nM | 49.5 µM | 49.5 µM |  |  |  | 
COc1ccc(CCNC(=O)NC(=O)c2ccc(C(=O)N3CCN(C)CC3)cc2)cc1 [SW208414-1-A] |  |  |  | ≥ 49.5 µM | 5.05 µM | ≥ 49.5 µM | 
COc1ccc(CCNC(=O)NC(=O)c2ccc(C(N)c3ccccc3)cc2)cc1 (centres unmarked) [SW208564-1-A] |  |  |  | 0.32 µM | 5.62 µM | 0.06 µM | 
COc1ccc(CCNC(=O)NC(=O)c2ccc(O)cc2)cc1 [SW208565-1-A] |  |  |  | 18 µM | 5.9 µM | 2.75 µM | 
COc1ccc(CCNC(=O)NC(=O)c2ccc(OCc3ccccc3)cc2)cc1 [SW208457-1-A] |  |  |  | 0.031 µM | ≥ 49.5 µM | 0.023 µM | 
O=c1c(-c2ccccc2)coc2cc(OCc3cnn(-c4ccccc4)c3)ccc12 [SW 208631-1] | 280 nM | 49.5 µM | 49.5 µM |  |  |  | 
Cc1cccc(C(=O)c2ccc(C(=O)NC(=O)NCCc3ccc(O)cc3)cc2)c1 [SW208582-1-A] |  |  |  | 2.73 µM | 0.5 µM | 1.53 µM | IC50 (H2122; [5]): 0.8 µM
COc1ccc(CCNC(=O)NC(=O)c2ccc(C(O)c3ccccc3)cc2)cc1 (centres unmarked) [SW208460-1-A] |  |  |  | 0.097 µM | ≥ 49.5 µM | 0.084 µM | IC50 (H2122; [5]): 0.0456 µM
Cc1cccc(Oc2coc3cc(OCc4cnn(-c5ccccc5)c4)ccc3c2=O)c1 [SW 208595-1] | 200 nM | 16.5 µM | 0.1 µM |  |  |  | 
COc1cc2sc(NC(=O)c3ccc(C(=O)c4ccccc4)cc3)nc2cc1Br [SW 208237] |  |  |  |  |  |  | IC50 (H2122; NCI-H2122, Tables 3 and 4, read-out: IC50 (uM) vs indicated non-small cell lung cancer cell line H2122): 0.61 µM; IC50 (H2009; Tables 3 and 4, read-out: IC50 (uM) vs indicated non-small cell lung cancer cell line H2009): 6.9 µM; IC50 (HCC44; HCC44, Tables 3 and 4, read-out: IC50 (uM) vs indicated non-small cell lung cancer cell line HCC44): 6.5 µM
O=c1c(-c2ccc(Cl)cc2)coc2cc(OCc3cnn(-c4ccccc4)c3)ccc12 [SW208738] | ≥ 49500 nM | 49.5 µM | 49.5 µM |  |  |  | 
